According to patent US20240043418A1, “1,3-DIHYDRO-2H-PYRROLO[3,4-C]PYRIDINE DERIVATIVES AS GABAA A5 RECEPTOR MODULATORS” (Richter Gedeon Nyrt., priority 2020, published 2024):

Columns and labels:
[1] = target: T1, human recombinant GABAA α5β3γ2 receptor (Homo sapiens (Human), UniProt P18507+P31644); assay: Receptor binding assay, [3H]Ro151788 displacement on membranes of HEK cells; details: [3H]Ro151788 0.5 nM, HEK cell membranes, 60 minutes at 4° C.; read-out: hGABAA α5 Ki
Description: The GABAA α5β3γ2 protein used for the receptor binding assay was derived from membranes produced from HEK cells (Millipore CYL3073) expressing the human recombinant GABAA α5β3γ2 receptor. Cells were stored and cultured in-house according to the instructions provided by the vendor (Millipor). Cell pellet was homogenized in 10 times modified Krebs Henseleit buffer (membrane preparation buffer): 20 mM Tris, 120 mM NaCl, 100 mM KCl, 25 mM CaCl2 and 25 mM MgCl2 pH=7.4 at 4° C. using Ultra Turrax (Janke&Kunkel) maximal speed for 15 seconds. The homogenate was centrifuged at 40,000 g for 30 minutes at 4° C. Supernatant was discarded and the resulting pellet was washed in membrane preparation buffer. Pellet was resuspended in membrane preparation buffer and aliquots of 1.4 mL ampulles were stored at −70° C. until use.
Receptor binding assays were performed in 96-well format in deep-well plates. For each 96-well plate one ampulle of membrane homogenate was thawed and diluted in binding buffer (50 mM Tris pH=7.4, 100 mM KCl) and 200 μL was dispensed into each well. Radioligand [^3H]Rol51788 (Perkin Elmer: NET757250UC) was prepared in binding buffer and added to each well in 50 μL volume to give final concentration of 0.5 nM. Test compounds in suitable concentration(s) were added in additional 50 μL. The final assay volume was 300 μL. Incubation was carried out for 60 minutes at 4° C. For non-specific binding 10 μM unlabeled diazepam was used. […] The plate was read in Microbeta (Perkin Elmer).
The specific radioligand binding (SB) was defined as the difference between total binding (Tot) and the non-specific binding (NSB). Results are expressed as a percent inhibition of specific binding obtained in the presence of compound of interest.
For IC50 and Ki determination a minimum of six drug concentrations in triplicate were used. […] Ki values (i.e. inhibition constants) were calculated using the Cheng-Prusoff equation Ki=IC50/[1+(L/KD)], where [L] is the radioligand concentration and KD the affinity of the labelled ligand for receptor. KD was determined from the Saturation analyses.

[2] = target: human recombinant GABAA α1β3γ2 receptor (Homo sapiens (Human), UniProt P14867+P18507); assay: Functional assay, QPatch automated patch clamp, modulation of GABA-evoked current; format: cell-based; details: tested at 10 μM; GABA 1 μM; HEK293 cells; percentage modulation of peak current
Description: (§1) Human HEK293 cell lines expressing GABAA α1β3γ2 and GABAA α5β3γ2 receptors were used in functional assays using the QPatch automated patch clamp system.
(§2) HEK293 cell lines stably expressing human recombinant GABAA α1β3γ2 receptor subunits (Millipore, CYL3073) or human recombinant GABAA α5β3γ2 receptor subunits (Millipore, CYL3053) were cultured in DMEM supplemented with 10% FBS (Gibco), passed two times per week and plated on Petri dishes previously coated with poly-d-lysine.
(§3) Automated whole-cell patch clamp recordings were made from cells 2-4 days after plating. Cells were detached using trypsin/EDTA (Sigma) treatment (2 minutes in 0.25% trypsin at 37° C.), then, after centrifugation (125G, 3 min, 2×), resuspended in a serum-free based media (Gibco, CHO-S-SFM-II) containing 12.5 mM HEPES, 1×penicillin-streptomycin-amphotericin (SigmaMix) and soybean trypsin inhibitor (Sigma, 0.04 mg/ml).
(§4) Cell suspension, as well as the extracellular solution (130 mM NaCl, 5 mM KCl, 5.1 mM HEPES, 4.9 mM HEPES-Na, 10 mM CaCl2), 2 mM MgCl2, 10 mM glucose and 0.1% DMSO, pH=7.35-7.4) and the intracellular solution (80 mM KCl, 50 mM KF, 36 mM KOH, 10 mM EGTA, 10 mM HEPES, 1.75 mM MgCl2, 0.5 mM CaCl2), 4 mM Na2ATP. 14 mM phosphocreatine, 50 U/ml creatine-phosphokinase, 0.3 mM GTP, pH=7.25-7.3) were added to the QPatch-HTX automated patch clamp system (Sophion) in single-cell mode at room temperature. Inward currents were evoked at a holding potential of −80 mV by 3-s-long applications of the control agonist GABA at sub-maximal effective concentration (1 μM) at 2-4-min intervals first in concentration-matched DMSO (0.1 or 0.3%) control solution for five times, then in the presence of the test compound for four times, finally in control solution again for three times (wash-out). At the end of the experiment 100 μM GABA was applied to saturate the GABA-response and to assess the efficacy of the control GABA application. Current signals were low-pass filtered at 100 Hz and recorded at a sampling rate of 1 kHz.
(§5) The percentage modulation was calculated from the comparison of GAB A-evoked peak current amplitudes in the presence and absence of the test compound.

[3] = target: T1, human recombinant GABAA α5β3γ2 receptor; assay: as above; format: cell-based; details: tested at 10 μM; GABA 1 μM; HEK293 cells; percentage modulation of peak current
Description: as §1, §2, §3, §4, §5

human recombinant GABAA α1β3γ2 receptor, sequence (P14867 28-456): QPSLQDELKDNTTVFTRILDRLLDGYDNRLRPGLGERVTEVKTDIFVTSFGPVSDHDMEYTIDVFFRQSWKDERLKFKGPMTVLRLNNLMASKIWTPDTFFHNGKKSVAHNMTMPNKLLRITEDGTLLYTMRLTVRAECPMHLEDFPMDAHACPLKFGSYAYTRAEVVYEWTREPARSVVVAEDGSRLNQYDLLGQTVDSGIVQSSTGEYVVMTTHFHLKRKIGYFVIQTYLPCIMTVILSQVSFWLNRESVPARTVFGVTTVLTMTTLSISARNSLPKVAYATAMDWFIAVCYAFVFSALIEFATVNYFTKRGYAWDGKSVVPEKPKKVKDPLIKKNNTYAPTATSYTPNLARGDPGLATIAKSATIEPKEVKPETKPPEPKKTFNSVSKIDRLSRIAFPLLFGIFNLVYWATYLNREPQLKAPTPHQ
human recombinant GABAA α1β3γ2 receptor, sequence (P18507 40-475): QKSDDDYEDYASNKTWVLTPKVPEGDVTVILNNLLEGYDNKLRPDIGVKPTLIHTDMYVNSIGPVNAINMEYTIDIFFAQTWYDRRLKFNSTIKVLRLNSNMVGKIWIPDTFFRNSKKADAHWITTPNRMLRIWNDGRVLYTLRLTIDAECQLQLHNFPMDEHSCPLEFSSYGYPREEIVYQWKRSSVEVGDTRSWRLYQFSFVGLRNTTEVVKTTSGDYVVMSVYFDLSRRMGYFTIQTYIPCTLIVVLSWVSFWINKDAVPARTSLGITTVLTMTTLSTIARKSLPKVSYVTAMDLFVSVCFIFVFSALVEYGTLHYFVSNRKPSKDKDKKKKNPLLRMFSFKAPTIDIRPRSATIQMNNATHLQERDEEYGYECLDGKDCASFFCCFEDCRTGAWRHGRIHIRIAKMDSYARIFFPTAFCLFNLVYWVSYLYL
human recombinant GABAA α1β3γ2 receptor, sequence (P28472 26-473 partner): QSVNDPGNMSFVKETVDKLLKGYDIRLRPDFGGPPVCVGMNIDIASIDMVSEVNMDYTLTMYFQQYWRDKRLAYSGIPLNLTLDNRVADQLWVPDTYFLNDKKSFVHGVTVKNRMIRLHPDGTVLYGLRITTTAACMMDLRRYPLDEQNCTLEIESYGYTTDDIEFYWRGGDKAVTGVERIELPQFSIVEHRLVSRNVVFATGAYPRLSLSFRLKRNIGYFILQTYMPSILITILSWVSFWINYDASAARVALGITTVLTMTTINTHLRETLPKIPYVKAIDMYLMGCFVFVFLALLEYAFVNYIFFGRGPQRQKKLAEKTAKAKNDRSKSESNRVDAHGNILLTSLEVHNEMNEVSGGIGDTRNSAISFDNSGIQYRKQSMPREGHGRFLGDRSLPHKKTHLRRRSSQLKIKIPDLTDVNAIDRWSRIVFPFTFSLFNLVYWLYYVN
T1 sequence (P31644 32-462): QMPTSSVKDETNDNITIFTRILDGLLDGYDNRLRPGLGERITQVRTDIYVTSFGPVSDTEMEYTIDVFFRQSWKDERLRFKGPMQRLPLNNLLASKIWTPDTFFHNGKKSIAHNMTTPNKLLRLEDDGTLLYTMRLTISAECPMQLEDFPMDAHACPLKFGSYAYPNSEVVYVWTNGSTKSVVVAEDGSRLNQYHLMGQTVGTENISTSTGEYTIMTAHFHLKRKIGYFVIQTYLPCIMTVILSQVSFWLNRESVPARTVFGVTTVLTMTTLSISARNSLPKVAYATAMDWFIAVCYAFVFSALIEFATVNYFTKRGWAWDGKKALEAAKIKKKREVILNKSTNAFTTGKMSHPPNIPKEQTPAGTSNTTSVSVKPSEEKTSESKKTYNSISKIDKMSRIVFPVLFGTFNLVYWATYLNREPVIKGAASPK
T1 sequence (P18507 40-475): as the sequence (P18507 40-475) above
T1 sequence (P28472 26-473 partner): as the sequence (P28472 26-473 partner) above

SMILES	Ki [1]	hGABAA α1 efficacy [2]	hGABAA α5 efficacy [3]
CC(=O)N1Cc2cnc(OCc3c(-c4ccc(F)cc4)nnn3C)cc2C1 [Example 2, 1-(6-{[4-(4-fluorophenyl)-1-methyl-1H-1,2,3-triazol-5-yl]methoxy}-1,3-dihydro-2H-pyrrolo[3,4-c]pyridin-2-yl)ethanone]	32 nM	−6%	−47%
CC(=O)N1Cc2cnc(OCc3c(C)nnn3-c3ccc(F)cc3)cc2C1 [Example 1, 1-(6-{[1-(4-fluorophenyl)-4-methyl-1H-1,2,3-triazol-5-yl]methoxy}-1,3-dihydro-2H-pyrrolo[3,4-c]pyridin-2-yl)ethanone]	10 nM	−2%	−43%
CC(=O)N1Cc2cnc(OCc3c(-c4ccc(F)cc4)noc3C)cc2C1 [Example 3, 1-(6-{[3-(4-fluorophenyl)-5-methyl-1,2-oxazol-4-yl]methoxy}-1,3-dihydro-2H-pyrrolo[3,4-c]pyridin-2-yl)ethanone]	0.9 nM	13%	−44%
